Changes are numbered by the printed parent chain.
T1: EXT1-EXT2 complex (EXT1 GlcA-T site) (Homo sapiens, UniProt Q16394)
T1 construct: 1:1 heterodimer of Golgi-luminal parts, transmembrane helix removed (EXT1 aa29-746, EXT2 aa47-718), C-terminal 8xHis kept, secreted alkaline phosphatase fusion cut off with TEV; co-expressed in FreeStyle 293-F; about 160 kDa; with Exostosin-2
T1 sequence (Q16394 29-746): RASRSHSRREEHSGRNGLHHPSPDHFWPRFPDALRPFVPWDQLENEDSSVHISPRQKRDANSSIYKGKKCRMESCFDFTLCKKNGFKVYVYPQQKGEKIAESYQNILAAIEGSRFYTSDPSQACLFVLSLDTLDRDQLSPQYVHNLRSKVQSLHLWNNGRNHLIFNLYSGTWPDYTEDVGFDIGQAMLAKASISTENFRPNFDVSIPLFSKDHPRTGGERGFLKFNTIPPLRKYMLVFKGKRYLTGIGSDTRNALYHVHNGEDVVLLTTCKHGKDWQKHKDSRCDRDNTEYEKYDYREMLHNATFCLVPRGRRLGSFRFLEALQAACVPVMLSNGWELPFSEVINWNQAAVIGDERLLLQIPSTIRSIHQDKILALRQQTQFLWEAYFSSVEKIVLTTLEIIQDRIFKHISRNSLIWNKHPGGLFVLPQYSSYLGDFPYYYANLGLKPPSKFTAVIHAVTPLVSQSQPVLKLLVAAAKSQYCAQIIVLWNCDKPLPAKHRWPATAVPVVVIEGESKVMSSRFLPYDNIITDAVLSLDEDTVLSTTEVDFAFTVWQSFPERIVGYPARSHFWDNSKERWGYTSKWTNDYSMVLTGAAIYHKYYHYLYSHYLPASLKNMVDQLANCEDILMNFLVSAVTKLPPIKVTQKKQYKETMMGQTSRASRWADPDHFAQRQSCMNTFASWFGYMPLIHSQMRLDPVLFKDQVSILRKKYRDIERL
T1 sequence (Q93063 47-718 partner): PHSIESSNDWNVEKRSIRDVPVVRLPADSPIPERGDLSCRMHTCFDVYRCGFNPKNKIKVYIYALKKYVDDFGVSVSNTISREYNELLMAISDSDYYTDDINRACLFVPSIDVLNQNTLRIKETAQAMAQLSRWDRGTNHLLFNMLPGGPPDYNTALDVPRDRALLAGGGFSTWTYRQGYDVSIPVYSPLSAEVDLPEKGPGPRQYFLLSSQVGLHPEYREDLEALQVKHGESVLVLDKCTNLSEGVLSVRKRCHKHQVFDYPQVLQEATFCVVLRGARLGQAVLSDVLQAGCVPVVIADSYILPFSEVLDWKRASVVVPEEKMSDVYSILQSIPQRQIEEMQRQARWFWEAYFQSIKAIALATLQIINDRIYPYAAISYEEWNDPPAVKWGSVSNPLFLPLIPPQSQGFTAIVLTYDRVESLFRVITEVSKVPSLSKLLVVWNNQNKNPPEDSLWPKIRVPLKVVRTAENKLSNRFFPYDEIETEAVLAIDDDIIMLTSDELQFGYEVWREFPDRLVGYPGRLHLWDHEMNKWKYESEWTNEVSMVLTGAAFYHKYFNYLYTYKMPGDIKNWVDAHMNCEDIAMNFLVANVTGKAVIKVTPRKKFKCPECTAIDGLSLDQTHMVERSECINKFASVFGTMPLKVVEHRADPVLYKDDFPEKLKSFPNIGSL

T2: EXT1-EXT2 complex (GlcNAc-T sites of EXT1 and EXT2) (Homo sapiens, UniProt Q16394+Q93063)
T2 construct: same complex as P1; separate entry only because each chain has its own GlcNAc-T site; 1:1 heterodimer (EXT1 aa29-746, EXT2 aa47-718), C-terminal 8xHis kept, alkaline phosphatase fusion cut off with TEV; FreeStyle 293-F
T2 sequence (Q16394 29-746): T1 sequence (Q16394 29-746)
T2 sequence (Q93063 47-718): T1 sequence (Q93063 47-718 partner)

T3: human EXT1 aa29-aa746 D162N/D164N (human, UniProt Q16394 29-746, D162N | D164N)
T3 construct: exostosin-1 (EXT1), human, residues 29-746, with point mutations in the GlcA-T domain; also called EXT1 D162N/D164N; source: FreeStyle 293-F cells, co-expressed with wild-type EXT2, purified as the wild-type complex; not shown: secreted alkaline phosphatase, N-terminal, cleaved; 8x His, C-terminal, kept
T3 sequence (looked up): T1 sequence (Q16394 29-746) with D134N, D136N

B1: human EXT1 (exostosin-1), N-terminally truncated, aa29-aa746 (enzyme, UniProt Q16394 29-746, looked up)
chain: T1 sequence (Q16394 29-746)
modifications: N-linked glycan at Asn330
notes: exostosin-1 (EXT1), human, residues 29-746, lacking the N-terminal transmembrane helix; Only obtained by co-expression with EXT2; Model built for aa89-aa728 with some loops missing; also called EXT1 WT; not shown: secreted alkaline phosphatase, N-terminal, cleaved; 8x His, C-terminal, kept
B2: human EXT2 (exostosin-2), N-terminally truncated, aa47-aa718 (enzyme, UniProt Q93063 47-718, looked up)
chain: T1 sequence (Q93063 47-718 partner)
modifications: N-linked glycan at Asn637
notes: exostosin-2 (EXT2), human, residues 47-718, lacking the N-terminal transmembrane helix; Only obtained by co-expression with EXT1; Model built for aa78-aa702 with some loops missing; also called EXT2 WT; not shown: secreted alkaline phosphatase, N-terminal, cleaved; 8x His, C-terminal, kept

Legend:
[1] = target: T1, EXT1-EXT2 complex (EXT1 GlcA-T site); experiment: FACE glycosyl transfer assay; assay type: biochemical; settings: acceptor Alexa Fluor 430-labelled dp9 5 uM; 1 mM UDP-GlcA; 10 mM MnCl2; pH 7.2; 30 C; EXT1 GlcA-T domain
[2] = target: T2, EXT1-EXT2 complex (GlcNAc-T sites of EXT1 and EXT2); experiment: FACE glycosyl transfer assay; assay type: biochemical; settings: acceptor Alexa Fluor 430-labelled dp8 5 uM; 1 mM UDP-GlcNAc; 10 mM MnCl2; pH 7.2; 30 C; GlcNAc-T domains of EXT1 and EXT2
[3] = target: T1, EXT1-EXT2 complex (EXT1 GlcA-T site); experiment: cryo-EM structure, […] A; assay type: binding; settings: EXT1 GlcA-T active site; UDP-GlcA, UDP-GlcNAc and MnCl2 1 mM each added, only UDP seen; pH 7.2
[4] = target: B2; experiment: cryo-EM structure; 0.4 mg/mL purified, co-expressed EXT1-EXT2 with 1 mM UDP-GlcNAc, 1 mM UDP-GlcA and 1 mM MnCl2; single-particle analysis, 2.8 Å; settings: both partners purified
[5] = target: B1; experiment: as above; settings: both partners purified
[6] = target: T3, human EXT1 aa29-aa746 D162N/D164N; experiment: negative stain EM; purified complex diluted to 0.02 mg/mL in buffer A (50 mM Tris pH 7.8, 150 mM NaCl); mica-carbon flotation; settings: both partners purified

Molecule: O=C(O)[C@H]1O[C@H](OP(=O)(O)OP(=O)(O)OC[C@H]2O[C@@H](n3ccc(=O)[nH]c3=O)[C@H](O)[C@@H]2O)[C@H](O)[C@@H](O)[C@@H]1O [UDP-GlcA]
FACE glycosyl transfer assay [1]: the addition of a GlcA moiety onto dp9 enhanced the migration rate

Molecule: CC(=O)N[C@H]1[C@@H](OP(=O)(O)OP(=O)(O)OC[C@H]2O[C@@H](n3ccc(=O)[nH]c3=O)[C@H](O)[C@@H]2O)O[C@H](CO)[C@@H](O)[C@@H]1O [UDP-GlcNAc]
FACE glycosyl transfer assay [2]: the transfer of a GlcNAc residue onto dp8 led to a slower migration rate

Molecule: O=c1ccn([C@@H]2O[C@H](COP(=O)(O)OP(=O)(O)O)[C@@H](O)[C@H]2O)c(=O)[nH]1 [UDP]
cryo-EM structure, 2.8 A [3]: we found an additional EM density that fits a UDP ligand

Molecule: B1
stoichiometry N [4]: 1

Molecule: B2
binding result [5]: binds
binding result [6]: binds

Reference: article PMC9675754, “Structure of the human heparan sulfate polymerase complex EXT1-EXT2” (Nature Communications, 2022)
